Results on 19 compounds are retold here after patent publication US20120046301A1, “Substituted Cyclic Carboxamide and Urea Derivatives as Ligands of the Vanilloid Receptor” (Gruenenthal GmbH, priority 2010, published 2012).

Test [1] concerns the target T1, vanilloid receptor 1 (VR1/TRPV1 receptor) (Homo sapiens, UniProt Q8NER1).
T1 construct: expressed in transfected cells; host or cells: CHO K1 cells (ECACC), stably transfected
Put plainly: FLIPR assay, CHO K1 cells transfixed with the human VR1 gene, displacement of capsaicin (Pharmacological Method II). As to conditions: capsaicin (Cap) 100 nM, Ki from IC50 by Cheng-Prusoff. Format: cell-based. Here is the method: In addition compounds according to the invention of the general formula (I) may be preferred, that in the FLIPR assay with CHO K1 cells that have been transfixed with the human VR1 gene effect in a concentration of less than 2000 nM, preferably less than 1000 nM, particularly preferably less than 300 nM, most particularly preferably less than 100 nM, even more preferably less than 75 nM, still most preferably less than 50 nM, and most of all preferably less than 10 nM, a 50% displacement of capsaicin that is present in a concentration of 100 nM.
In this connection the Ca^2+ inflow is quantified in the FLIPR assay with the aid of a Ca^2+-sensitive dye (Type Fluo-4, Molecular Probes Europe BV, Leiden, Netherlands) in a fluorescent imaging plate reader (FLIPR, Molecular Devices, Sunnyvale, USA), as described hereinafter.
The agonistic and antagonistic action of the substances to be investigated on the vanilloid receptor (VR1) can also be determined with the following assay. According to this assay the Ca^2+ inflow through the channel is quantified in the Fluorescent Imaging Plate Reader (FLIPR, Molecular Devices, Sunnyvale, USA) with the aid of a Ca^2+ sensitive dye (Type Fluo-4, Molecular Probes, Europe BV, Leiden, Netherlands).
Chinese hamster ovary cells (CHO K1 cells, European Collection of Cell Cultures (ECACC) Great Britain) are stably transfixed with the VR1 gene. For the functional investigations these cells are plated out on poly-D-lysine-coated, black 96-well plates with a clear floor (BD Biosciences, Heidelberg, Germany) in a density of 25,000 cells/well. The cells are incubated overnight at 37° C. and 5% CO2 in a culture medium (Nutrient Mixture ‘am's F12, 10 Vol % FCS (fetal calf serum), 18 μg/ml L-proline. The following day the cells are incubated with Fluo-4 (Fluo-4 2 μM, Pluronic F127 0.01 Vol %, Molecular Probes in HBSS (Hank's buffered saline solution), Gibco Invitrogen GmbH, Karlsruhe, Germany) for 30 minutes at 37° C. The plates are then washed 3 times with HBSS buffer and, after a further incubation for 15 minutes at RT, used in the FLIPR assay for the Ca^2+ measurement. The Ca^2+-dependent fluorescence is in this connection measured both before and after addition of the substances to be investigated (wavelength λex=488 nm, λem=540 nm). The quantification is carried out by measuring the highest fluorescence intensity (FC, Fluorescence Counts) over time.
The FLIPR protocol consists of 2 additions of substances. First of all the compounds to be tested (10 μM) are pipetted onto the cells and the Ca^2+ inflow is compared with the control (capsaicin 10 μM) (% activation referred to the Ca^2+ signal after addition of 10 μM capsaicin). After 5 minutes' incubation 100 nM capsaicin are added and the inflow of Ca^2+ is again determined.
Desensitising agonists and antagonists lead to a suppression of the Ca^2+ inflow. The % inhibition compared to the maximum achievable inhibition with 10 μM capsaicin is calculated.
Starting from the percentage displacement caused by different concentrations of the compounds of the general formula I to be tested, IC50 inhibiting concentrations that produce a 50% displacement of capsaicin were calculated. K, values for the test substances were obtained by reconversion using the (Cheng, Prusoff; Biochem. Pharmacol. 22, 3099-3108, 1973) relationship.

The next test concerns male mice (NMRI). Put plainly: Formalin test on mice (second phase). The class given is in vivo. Here is the method: The investigation to determine the antinociceptic action of the compounds according to the invention is carried out in the formalin test on male mice (NMRI, 20 bis 30 g body weight, Iffa, Credo, Belgium).
According to D. Dubuisson et al., Pain 1977, 4, 161-174, in the formalin test the first (early) phases ([…] after the formalin injection) and the second (late) phase (15 to 60 minutes after the formalin injection) are different. The early phase, which is a direct reaction to the formalin injection, represents a model of acute pain, whereas the late phase is regarded as a model of persistent (chronic) pain (T. J. Coderre et al., Pain 1993, 52, 259-285). The corresponding literature descriptions are hereby incorporated by way of reference and count as part of the disclosure.
The compounds according to the invention are investigated in the second phase of the formalin test, in order to obtain information on the effects of substances on chronic/inflammation pain.
The administration time of the compounds according to the invention before the formalin injection is selected depending on the type of administration of the compounds according to the invention. The intravenous administration of 10 mg/kg body weight of the test substances is carried out 5 minutes before the formalin injection. […]
The nociceptive behaviour is then continuously assessed by observing the animals for an investigation period of 3 minutes in the (second) late phase of the formalin test (21 to 24 minutes after the formalin injection). The pain behaviour is quantified by counting the time in seconds during which the animals licked and bit the affected paw during the investigation period.
The comparison is made in each case with control animals, which receive instead of the compounds according to the invention a neutral vehicle (0.9% aqueous sodium chloride solution) before the formalin injection. Based on the quantification of the pain behaviour, the effect of the substance in the formalin test is measured as the change compared to the corresponding control. […]

T1 sequence (Q8NER1 whole entry): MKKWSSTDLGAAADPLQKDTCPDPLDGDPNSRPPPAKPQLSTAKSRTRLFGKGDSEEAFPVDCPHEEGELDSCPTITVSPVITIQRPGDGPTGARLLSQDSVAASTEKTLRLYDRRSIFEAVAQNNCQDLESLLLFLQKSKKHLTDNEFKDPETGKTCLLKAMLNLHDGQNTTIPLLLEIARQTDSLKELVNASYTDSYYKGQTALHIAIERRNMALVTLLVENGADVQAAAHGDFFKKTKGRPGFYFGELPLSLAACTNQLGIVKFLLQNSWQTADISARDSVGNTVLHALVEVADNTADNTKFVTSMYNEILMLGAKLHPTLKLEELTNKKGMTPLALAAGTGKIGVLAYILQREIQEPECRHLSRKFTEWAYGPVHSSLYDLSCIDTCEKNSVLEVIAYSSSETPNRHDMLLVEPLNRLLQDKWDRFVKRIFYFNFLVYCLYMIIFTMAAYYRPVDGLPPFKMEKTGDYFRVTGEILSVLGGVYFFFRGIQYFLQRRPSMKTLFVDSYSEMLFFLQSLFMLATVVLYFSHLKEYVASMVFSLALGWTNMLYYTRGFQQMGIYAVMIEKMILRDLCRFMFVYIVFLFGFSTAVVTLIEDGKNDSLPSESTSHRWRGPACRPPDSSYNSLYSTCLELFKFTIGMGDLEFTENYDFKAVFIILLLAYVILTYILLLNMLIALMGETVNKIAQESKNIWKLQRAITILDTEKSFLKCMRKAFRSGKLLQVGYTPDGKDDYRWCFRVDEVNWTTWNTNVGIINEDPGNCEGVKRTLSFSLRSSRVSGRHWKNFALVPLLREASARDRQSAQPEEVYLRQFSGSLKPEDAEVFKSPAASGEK

As a reminder, the Ki is a dissociation constant, usually derived from enzyme kinetics or from competition with a known ligand. Read a low Ki as tighter binding. Turning to `CC(C)(C)c1cc(CNC(=O)N2CCN(c3ncccc3Cl)CC2)n(-c2cccc(Cl)c2)n1` [Example 2, N-((3-tert-butyl-1-(3-chlorophenyl)-1H-pyrazol-5-yl)methyl)-4-(3-chloropyridin-2-yl)piperazine-1-carboxamide], in test [1], the Ki came to 10 nM. The figures for the “FTm, p.o. % effect @ dose (mg/kg)” value with male mice (NMRI) (dose 10.0 mg/kg), in the test with male mice (NMRI) (dose 30.0 mg/kg) and in the test on male mice (NMRI) (dose 100.0 mg/kg) were 1% @10.0, 36% @30.0 and 66% @100.0, respectively. For the compound `O=C(NCc1cc(C(F)(F)F)nn1-c1cccc(Cl)c1)N1CCN(c2ncccc2Cl)CC1` [Example 3, N-((1-(3-chlorophenyl)-3-(trifluoromethyl)-1H-pyrazol-5-yl)methyl)-4-(3-chloropyridin-2-yl)piperazine-1-carboxamide], the Ki in test [1] was 14 nM. Compound `CC(C)(C)c1cc(CNC(=O)N2CCN(c3ccccc3F)CC2)n(-c2cccc(Cl)c2)n1` [Example 5, N-((3-tert-butyl-1-(3-chlorophenyl)-1H-pyrazol-5-yl)methyl)-4-(2-fluorophenyl)piperazine-1-carboxamide] returned a Ki in test [1] of 5 nM. Compound `Cc1c(C(F)(F)F)nn(-c2cccc(Cl)c2)c1CNC(=O)N1CCN(c2ncccc2Cl)CC1` [Example 9, N-((1-(3-chlorophenyl)-4-methyl-3-(trifluoromethyl)-1H-pyrazol-5-yl)methyl)-4-(3-chloropyridin-2-yl)piperazine-1-carboxamide] had a Ki in test [1] of 16 nM. The same measure, in the same setting: for `O=C(NCc1cc(C2CC2)nn1-c1cccc(Cl)c1)N1CCN(c2ncccc2Cl)CC1` [Example 10, N-((1-(3-chlorophenyl)-3-cyclopropyl-1H-pyrazol-5-yl)methyl)-4-(3-chloropyridin-2-yl)piperazine-1-carboxamide] the value was 85 nM; for `CCCCCn1nc(C(F)(F)F)cc1CNC(=O)N1CCN(c2ncccc2Cl)CC1` [Example 12, 4-(3-chloropyridin-2-yl)-N-((1-pentyl-3-(trifluoromethyl)-1H-pyrazol-5-yl)methyl)piperazine-1-carboxamide], 68 nM; for `O=C(NCc1cc(C(F)(F)F)nn1-c1cccc(Cl)c1)N1CCC(c2ccccc2)CC1` [Example 26, N-((1-(3-chlorophenyl)-3-(trifluoromethyl)-1H-pyrazol-5-yl)methyl)-4-phenylpiperidine-1-carboxamide], 27 nM.

`O=C(NCc1cc(C(F)(F)F)nn1-c1cccc(Cl)c1)N1CC=C(c2ccc(F)cc2)CC1` [Example 34, N-((1-(3-chlorophenyl)-3-(trifluoromethyl)-1H-pyrazol-5-yl)methyl)-4-(4-fluorophenyl)-5,6-dihydropyridine-1(2H)-carboxamide] returned a Ki in test [1] of 27 nM. The same measure, in the same setting: for `O=C(NCc1cc(C(F)(F)F)nn1-c1cccc(Cl)c1)N1CCN(c2ccccc2F)CC1` [Example 46, N-((1-(3-chlorophenyl)-3-(trifluoromethyl)-1H-pyrazol-5-yl)methyl)-4-(2-fluorophenyl)piperazine-1-carboxamide] the value was 45 nM. For `O=C(NCc1cc(C(F)(F)F)nn1-c1cccc(Cl)c1)N1CCN(c2ccc(F)cc2)CC1` [Example 47, N-((1-(3-chlorophenyl)-3-(trifluoromethyl)-1H-pyrazol-5-yl)methyl)-4-(4-fluorophenyl)piperazine-1-carboxamide], the Ki in test [1] turned out to be 48 nM. With `COc1ccccc1N1CCN(C(=O)NCc2cc(C(F)(F)F)nn2-c2cccc(Cl)c2)CC1` [Example 48, N-((1-(3-chlorophenyl)-3-(trifluoromethyl)-1H-pyrazol-5-yl)methyl)-4-(2-methoxyphenyl)piperazine-1-carboxamide], the Ki in test [1] was found to be 61 nM. On the same count and under the same terms, for `COc1cccc(N2CCN(C(=O)NCc3cc(C(F)(F)F)nn3-c3cccc(Cl)c3)CC2)c1` [Example 49, N-((1-(3-chlorophenyl)-3-(trifluoromethyl)-1H-pyrazol-5-yl)methyl)-4-(3-methoxyphenyl)piperazine-1-carboxamide] the value was 35 nM; for `COc1ccc(N2CCN(C(=O)NCc3cc(C(F)(F)F)nn3-c3cccc(Cl)c3)CC2)cc1` [Example 50, N-((1-(3-chlorophenyl)-3-(trifluoromethyl)-1H-pyrazol-5-yl)methyl)-4-(4-methoxyphenyl)piperazine-1-carboxamide], 63 nM. Still for that read-out and setting: for `O=C(NCc1cc(C(F)(F)F)nn1-c1cccc(Cl)c1)N1CCN(c2ccccc2Cl)CC1` [Example 51, 4-(2-chlorophenyl)-N-((1-(3-chlorophenyl)-3-(trifluoromethyl)-1H-pyrazol-5-yl)methyl)piperazine-1-carboxamide] the value was 7 nM. Consider `CC(C)(C)c1cc(CNC(=O)N2CCN(c3cccc(Cl)c3)CC2)n(-c2cccc(Cl)c2)n1` [Example 52, N-((3-tert-butyl-1-(3-chlorophenyl)-1H-pyrazol-5-yl)methyl)-4-(3-chlorophenyl)piperazine-1-carboxamide], for which affinity in test [1] was put at a Ki of 36 nM.

Consider `CC(C)(C)c1cc(CNC(=O)N2CCN(c3ccc(Cl)cc3)CC2)n(-c2cccc(Cl)c2)n1` [Example 53, N-((3-tert-butyl-1-(3-chlorophenyl)-1H-pyrazol-5-yl)methyl)-4-(4-chlorophenyl)piperazine-1-carboxamide], for which the Ki in test [1] was determined as 42 nM.

As to `O=C(NCc1cc(C(F)(F)F)nn1-c1cccc(Cl)c1)N1CCN(c2ccc(Cl)cc2)CC1` [Example 54, 4-(4-chlorophenyl)-N-((1-(3-chlorophenyl)-3-(trifluoromethyl)-1H-pyrazol-5-yl)methyl)piperazine-1-carboxamide], the Ki in test [1] was 56 nM. `O=C(NCc1cc(C(F)(F)F)nn1-c1cccc(Cl)c1)N1CCN(c2ncccc2C(F)(F)F)CC1` [Example 56, N-((1-(3-chlorophenyl)-3-(trifluoromethyl)-1H-pyrazol-5-yl)methyl)-4-(3-(trifluoromethyl)pyridin-2-yl)piperazine-1-carboxamide]: the Ki in test [1] amounted to 4 nM. In turn, “N-((1-(3-chlorophenyl)-3-(trifluoromethyl)-1H-pyrazol-5-yl)methyl)-4-(1-(4-fluorophenyl)ethyl)piperazine-1-carboxamide [Example 22]” had a Ki in test [1] of 41 nM.
